Series [1] has as its system HuVECs. Kind of series: Endothelial tube formation assay in HuVECs. The conditions noted are these: 75 nM oligomeric compound, Table 59.
Series [2] concerns PPARγ. Kind of series: PPARγ mRNA expression in adipocytes (real-time PCR). The format is cell-based, human. The conditions noted are these: differentiating adipocytes transfected with oligomeric compound; Table 75.
Series [3] has as its system aP2. Description: aP2 mRNA expression in adipocytes (real-time PCR). The settings on record: differentiating adipocytes transfected with oligomeric compound; Table 75. The format is cell-based, human.
The test system of series [4] is IGFBP-1. Description: IGFBP-1 mRNA expression in HepG2 cells. The series is classed as cell-based, human. The settings on record: for IGFBP1 mRNA expression: Experiment 2, insulin treated: HepG2 cells transfected with oligomeric compound, 1 nM insulin for four hours, UTC + 1 nM insulin = 100; for IGFBP1 mRNA: HepG2 cells, Experiment 1, basal (no insulin), four hours, UTC = 100.

In series [5] the test system is PEPCK-c. Description: PEPCK-c mRNA expression in HepG2 cells. The series is classed as cell-based, human. The conditions noted are these: for PEPCKc mRNA expression: Experiment 2, insulin treated: HepG2 cells transfected with oligomeric compound, 1 nM insulin for four hours, UTC + 1 nM insulin = 100; for PEPCKc mRNA: HepG2 cells, Experiment 1, basal (no insulin), four hours, UTC = 100.

The subject of series [6] is Glut4. Description: Glut4 mRNA expression in adipocytes (real-time PCR). The settings on record: differentiating adipocytes transfected with oligomeric compound; Table 75. The format is cell-based, human.
Series [7] concerns HSL. Description: HSL mRNA expression in adipocytes (real-time PCR). The format is cell-based, human. The conditions noted are these: differentiating adipocytes transfected with oligomeric compound; Table 75.

In the oligonucleotide strings, read from the 5' end, every base follows the letter of its sugar. An asterisk marks phosphorothioate; unmarked linkages are phosphodiester. Other units and linkages are bracketed, terminal groups are in braces. A string of capitals states the bases alone. e = 2'-O-(2-methoxyethyl) (MOE); [5mC] = 5-methylcytosine

As to “327965 (antisense eA*eT*e[5mC]*eA*e[5mC]*eA*eT*eA*eG*eG*eA*eA*eT*eA*eA*eA*eA*eA*eG*e[5mC]*e[5mC]*eA*eT*eA) [compound 327965]”, the “% Activity Relative to UTC (tube formation)” value (“% Activity Relative to UTC” for short) in series [1] is 100.0%. In addition, the “PPAR gamma mRNA” value in series [2] is 91 percentage of untreated control (UTC). Also, the “aP2 mRNA” value in series [3] was 67 percentage of untreated control (UTC). Further, in series [4], the “IGFBP1 mRNA expression” value is on record as 105 and the “IGFBP1 mRNA” value was determined as 106. In addition, in series [5], the “PEPCKc mRNA expression” value is 64 and the “PEPCKc mRNA” value is given as 63. In addition, the “GLUT4 mRNA” value in series [6] is 88 percentage of untreated control (UTC). Further, in series [7], the “HSL mRNA” value is 84 percentage of untreated control (UTC).
Turning to “327952 (antisense e[5mC]*eT*eA*e[5mC]*eG*e[5mC]*eG*eT*eA*eT*eT*e[5mC]*eT*eT*eA*eA*eG*e[5mC]*eA*eA*eT*eA) [compound 327952]”, the “% Activity Relative to UTC” value in series [1] is 53.3%. In addition, the “PPAR gamma mRNA” value in series [2] is listed as 84 percentage of untreated control (UTC). Further, the “aP2 mRNA” value in series [3] is 56 percentage of untreated control (UTC). Also, in series [4], the “IGFBP1 mRNA expression” value was found to be 103 and the “IGFBP1 mRNA” value was determined as 123. For the same substance, in series [5], the “PEPCKc mRNA expression” value is on record as 85 and the “PEPCKc mRNA” value is 70. For the same substance, the “GLUT4 mRNA” value in series [6] is 61 percentage of untreated control (UTC). In addition, in series [7], the “HSL mRNA” value is on record as 64 percentage of untreated control (UTC).
Regarding “327964 (antisense e[5mC]*e[5mC]*eA*eA*eG*eT*eT*e[5mC]*eT*eG*eT*e[5mC]*eA*eT*eG*e[5mC]*eA*e[5mC]*eT*eG*eA) [compound 327964]”, the “% Activity Relative to UTC” value in series [1] stood at 86.7%. The “PPAR gamma mRNA” value in series [2] is 93 percentage of untreated control (UTC). Also, the “aP2 mRNA” value in series [3] was 96 percentage of untreated control (UTC). In series [4], the “IGFBP1 mRNA expression” value is given as 121 and the “IGFBP1 mRNA” value was 100. In series [5], the “PEPCKc mRNA expression” value is 122 and the “PEPCKc mRNA” value is reported as 74. In addition, the “GLUT4 mRNA” value in series [6] is reported as 114 percentage of untreated control (UTC). For the same substance, the “HSL mRNA” value in series [7] was 102 percentage of untreated control (UTC).
Take “327950 (antisense eT*e[5mC]*eA*eG*eT*eT*eT*eT*eG*e[5mC]*eA*eT*eA*eG*eA*eT*eT*eT*eG*e[5mC]*eA*e[5mC]*eA) [compound 327950]”: the “% Activity Relative to UTC” value in series [1] is given as 73.3%. In series [2], the “PPAR gamma mRNA” value is on record as 93 percentage of untreated control (UTC). The “aP2 mRNA” value in series [3] is 95 percentage of untreated control (UTC). In addition, in series [4], the “IGFBP1 mRNA expression” value stood at 124 and the “IGFBP1 mRNA” value stood at 109. In addition, in series [5], the “PEPCKc mRNA expression” value was 82 and the “PEPCKc mRNA” value stood at 65. Further, in series [6], the “GLUT4 mRNA” value is listed as 104 percentage of untreated control (UTC). For the same substance, the “HSL mRNA” value in series [7] was 94 percentage of untreated control (UTC).

Values taken from US8178506B2, “Oligomeric compounds and compositions for use in modulation of small non-coding RNAs” (Regulus Therapeutics Inc., priority 2003, dated 2012).
